# How the values were obtained:
# [1] = test system: platelet aggregation induced by arachidonic acid; assay: Inhibitory effect on platelet aggregation (arachidonic acid-induced, rabbit platelet-rich plasma); type: cell-based; conditions: arachidonic acid 137 μ moles/liter
# Experimental: (1) Measurement of inhibitory effect on platelet aggregation:
# Blood was drawn from ether-anesthetized rabbits (weighing 2.5 to 3.5 kg) through a canule inserted into the carotid artery. Immediately then, a 3.8% aqueous solution of sodium citrate was added to the collected blood in a volume of 1/10 of the volume of the blood after addition of the aqueous solution citrate solution. The blood was then centrifuged for 15 minutes at 150 G at room temperature to obtain plasma having platelet suspended therein as a supernatant.
# An aliquot of 0.435 ml of platelet-rich plasma was put into the cell of an aggregometer adjusted to a temperature of 37° C. and a stirring speed of 1200 rpm. […] An aqueous solution of arachidonic acid as a platelet aggregation inducing agent (the final concentration of arachidonic acid is 137μ moles/liter) was added, and with stirring, changes in absorbance were measured for 10 minutes.
# The effect of platelet aggregation inhibition of the test compound was calculated as follows: [formula] ΔC: a change in absorbance in a control run, ΔS: a change in absorbance when the test compound was added.
# In the control run, 2.5 μl of dimethyl sulfoxide was added instead of the test compound.
# [2] = test system: blood pressure (average arterial pressure); assay: Blood pressure lowering activity in anesthetized rabbits; type: in vivo, rabbit; conditions: average of at least three rabbits
# [3] = final concentration 3 μ moles/liter
# [4] = final concentration 10 μ moles/liter
# [5] = final concentration 30 μ moles/liter
# [6] = final concentration 100 μ moles/liter
SMILES,inhibition of platelet aggregation ([1]; final concentration 1 μ moles/liter),"inhibition of platelet aggregation [1, 3]",Blood pressure lowering effect ([2]; 100 μg/kg i.v.),"inhibition of platelet aggregation [1, 4]","inhibition of platelet aggregation [1, 5]",Blood pressure lowering effect ([2]; 10 μg/kg i.v.),Blood pressure lowering effect ([2]; 30 μg/kg i.v.),"inhibition of platelet aggregation [1, 6]"
"CCOC(=O)c1c(C)cc2cnc(-c3ccccc3F)nc2c1C [Example 4, 2-(o-fluorophenyl)-7-ethoxycarbonyl-6,8-dimethylquinazoline]",100%,100%,32 mmHg,,,,,
"CCOC(=O)c1c(C)cc2cnc(-c3ccccc3)nc2c1C [Example 2, 2-phenyl-7-ethoxycarbonyl-6,8-dimethylquinazoline]",,,15 mmHg,100%,100%,,,
"CCOC(=O)c1c(C)cc2cnc(-c3ccccc3Cl)nc2c1C [Example 1, 2-(o-chlorophenyl)-7-ethoxycarbonyl-6,8-dimethylquinazoline]",,100%,49 mmHg,100%,100%,12 mmHg,22 mmHg,
"CCOC(=O)c1c(C)cc2cnc(-c3ccccc3C(F)(F)F)nc2c1C [Example 5, 2-(o-trifluoromethylphenyl)-7-ethoxycarbonyl-6,8-dimethylquinazoline]",,,25 mmHg,,,,,100%
"CCOC(=O)c1c(C)cc2cnc(Cc3ccccc3)nc2c1C [Example 7, 2-benzyl-7-ethoxycarbonyl-6,8-dimethylquinazoline]",,,18 mmHg,,,,,100%
"CCOC(=O)c1c(C)cc2cnc(C)nc2c1C [Example 6, 2-methyl-7-ethoxycarbonyl-6,8-dimethylquinazoline]",,,12 mmHg,,,,,100%
"CCOC(=O)c1c(C)cc2cnc(-c3ccccc3C)nc2c1C [Example 3, 2-(o-methylphenyl)-7-ethoxycarbonyl-6,8-dimethylquinazoline]",,,20 mmHg,100%,100%,,,

# From patent US4517189A, “2,6,7,8-Substituted quinazolines, process for production thereof, and use thereof” (Showa Denko K.K., priority 1983, dated 1985)
